Test results as given in patent US9249128B2 (priority 2010, dated 2016).
Where two headings read alike, the source gives them in different places.

Key:
[1] = molecular target: T1, KIAA1363 (Homo sapiens, UniProt Q6PIU2); test: Competitive ABPP of tumors explanted from treated mice; assay type: in vivo, mouse; design: PC3 cancer cells, which have high endogenous KIAA1363 levels; endogenous in cells; host or cells: PC3 (2-acetyl MAGE assay also DU145 and SKOV3); details: 80 mg/kg oral daily; tumors removed 4 hr after final dose (day 33)
T1 sequence (Q6PIU2 1-408): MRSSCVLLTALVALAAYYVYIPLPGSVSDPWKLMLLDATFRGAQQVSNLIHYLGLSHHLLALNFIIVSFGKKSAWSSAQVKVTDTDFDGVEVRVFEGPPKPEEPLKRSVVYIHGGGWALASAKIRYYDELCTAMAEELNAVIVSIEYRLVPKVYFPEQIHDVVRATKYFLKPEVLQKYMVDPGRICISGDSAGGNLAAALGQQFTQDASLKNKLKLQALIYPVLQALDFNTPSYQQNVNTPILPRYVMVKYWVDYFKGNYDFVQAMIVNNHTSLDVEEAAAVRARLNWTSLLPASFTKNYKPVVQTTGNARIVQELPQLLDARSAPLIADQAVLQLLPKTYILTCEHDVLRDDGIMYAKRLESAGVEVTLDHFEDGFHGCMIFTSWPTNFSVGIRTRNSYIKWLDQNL
Method: (§1) For ABPP experiments, cell lysate and tissue proteomes were treated with 1 μM FP-rhodamine for 30 min at room temperature (50 μL total reaction volume) as described previously (Nomura et al., 2010). Reactions were quenched with one volume of standard 4×SDS/PAGE loading buffer (reducing), separated by SDS/PAGE (10% acrylamide), and visualized in-gel with a Hitachi FMBio IIe flatbed fluorescence scanner (MiraiBio). Inhibitors were preincubated prior (30 min or 4 h at 37° C. in vitro or in situ, respectively) to the addition of FP-rhodamine.
(§2) Human cancer xenografts were established by transplanting cancer cell lines ectopically into the flank of C.B17 SCID mice (Taconic Farms). Briefly, cells were washed two times with PBS, trypsinized, and harvested in serum-containing medium. Next, the harvested cells were washed two times with serum-free medium and resuspended at a concentration of 2.0×10^4 cells/μL and 100 μL was injected. Growth of the tumors was measured every 3 days with calipers. For chronic JW480 treatment studies, mice were treated with JW480 or vehicle once daily (at approximately the same time everyday) by oral gavage in PEG300 (4 μL/g mouse). The treatments were initiated immediately after ectopic injection of cancer cells.

[2] = system: serine hydrolase activities detected in the brain proteome; test: Competitive ABPP-MudPIT of brain membrane proteomes from treated mice; assay type: in vivo, mouse; details: 20 mg/kg, oral gavage, 4 hr; off-target is carboxylesterase ES1
Method: Competitive ABPP-MudPIT experiments were performed as previously described (Nomura et al., 2010). Briefly, 1 mg of proteome was labeled with 5 μM FP-biotin, followed by solubilization with 1% Triton X-100, denaturation by SDS and heating, avidin precipitation of labeled proteins, and on-bead tryptic digest. Tryptic peptides were then loaded on to a biphasic (strong cation exchange/reverse phase) capillary column and analyzed by two-dimensional liquid chromatography (2D-LC) separation in combination with tandem mass spectrometry using an Agilent 1100 LC system coupled with a ThermoFisher LTQ linear ion trap mass spectrometer. Spectral counts are reported as the average of three samples with the standard error of the mean (SEM).
JW480 was administered by oral gavage (in PEG300, 4 μL/g mouse) or intraperitoneally (in 18:1:1 v/v/v solution of saline:ethanol:emulphor, 10 μL/g). After the indicated amount of time, mice were anesthetized with isoflurane and killed by decapitation. Tissues were removed and then flash frozen in liquid N2. Tissues were stored at −80° C. until use. Animal experiments were conducted in accordance with the guidelines of the institutional Animal Care and Use Committee of The Scripps Research Institute.

[3] = system: PC3 tumor xenograft; test: PC3 tumor xenograft growth in SCID mice; assay type: in vivo, mouse; details: 80 mg/kg, oral, daily, versus vehicle
Method: as §2

[4] = system: LNCaP cells; test: Cell survival assay in LNCaP cells; assay type: cell-based, human; details: 1 μM, 48 h in situ treatment; cells express low levels of KIAA1363
Method: (§3) Inhibitors were dissolved in DMSO and diluted into media or buffer prior to cell or proteome treatment, respectively. For in vitro treatment, final DMSO concentration was 4%. For in situ treatments of cells for ABPP, lipid measurements, migration, cell-survival, and invasion assays, 2×10^6 cells were seeded in 6 cm dishes (˜100% confluency) 24 h prior to inhibitor pre-treatment (in DMSO at 0.1% final concentration) in serum-free media (3 mL) for the designated time before harvesting cells for ABPP or lipid measurements or before the initiation of migration, cell-survival, and invasion assays.
Cell migration, cell survival, and invasion studies were performed as previously described (Nomura et al., 2010). Briefly, migration assays were performed in Transwell chambers (Corning) with 8 μm pore-sized membranes coated with 10 μg/mL collagen at 37° C. for LNCaP (24 h), PC3 (4 h) and DU145 cells (24 h), respectively. Cell survival assays were performed using the Cell Proliferation Reagent WST-1 (Roche) Invasion assays were conducted using the BD Matrigel Invasion Chambers per the manufacturer's protocol. Inhibitors were preincubated for the stated duration before seeding cells into migration, cell-survival, or invasion chambers. Prior to seeding the cells in these chambers, cells were serum-starved for 4 h. Inhibitors were also present during the migration, cell-survival, and invasion assays.

[5] = molecular target: T1, KIAA1363; test: Gel-based competitive ABPP of living PC3 cells, in situ treatment; assay type: cell-based; design: PC3 cancer cells, which have high endogenous KIAA1363 levels; endogenous in cells; host or cells: PC3; details: for IC50: in situ treatment
Method: as §3, §1
JW576 was dissolved in DMSO and diluted into media or buffer prior to cell or proteome treatment, respectively. For in vitro treatment, final DMSO concentration was 4%. For in situ treatments of cells for ABPP, 2×10^6 cells were seeded in 6 cm dishes (100% confluency) 24 hr prior to JW576 pretreatment with or without JW480 (in DMSO at 0.1% final concentration) in serum-free media (3 ml) for the designated time before harvesting cells for ABPP.
For ABPP experiments, cell lysate and tissue proteomes were treated with 1 μM FP-rhodamine for 30 min at room temperature ([…]). Reactions were quenched with one volume of standard 4×SDS/PAGE loading buffer (reducing), separated by SDS/PAGE (10% acrylamide), and visualized in-gel with a Hitachi FMBio IIe flatbed fluorescence scanner (MiraiBio). For experiments involving a preincubation with JW576 in the presence or absence of the non-fluorescent competitor JW480, the reactions were prepared without FP-rhodamine. JW576 were added at the indicated concentration and incubated for the indicated time at 37° C. FP-rhodamine was then added and the reaction was carried out exactly as described above.

CC(C)c1ccccc1OC(=O)NCCc1ccc2ccccc2c1 [JW480, 2-isopropylphenyl (2-(naphthalen-2-yl)ethyl)carbamate]
KIAA1363 activity in explanted tumors [1]: completely ablated
Off-targets among ~30 brain serine hydrolase activities (ABPP-MudPIT) [2]: only a single off-target was observed
PC3 tumor growth [3]: significantly impaired
Survival of LNCaP cells [4]: does not affect
Duration of in situ inhibition of KIAA1363 ([5]; JW480 1 μM, PC3 cells): at least 48 hr
IC50 ([5]; PC3 cells, read-out: IC50 for KIAA1363, in situ (FIG. 3B)): 6 nM
IC50 ([5]; presence or absence of 10% fetal calf serum, read-out: IC50 for KIAA1363 in living PC3 cells): 6 to 12 nM
